Source: patent US9957270B2, “Fused pyrimidine-based hydroxamate derivatives” (Agency for Science, Technology and Research, priority 2014, dated 2018)

What was measured:
[1] = tested on: NCI-H460; test: Anti-proliferative assay (cellular IC50), NCI-H460; details: Homo sapiens, NCI-H460, read-out: In Vitro Cellular IC50 NCI-H460
Description: Cells were cultivated at 37° C., 5% CO2 in media containing 10% FBS and 2 mM glutamine Cells were routinely monitored with MycoAlert™ PLUS Mycoplasma Detection Kit (Lonza Walkersville, Inc.) to make sure they were mycoplasma free. Antibiotics (100 U/mL of penicillin and 100 μg/mL of streptomycin) were only added to the media used for compound dilution and cells in 96-well assay plates.
For a typical screening experiment, cells (100 μL/well) are inoculated into 96 well microtiter plates at plating densities ranging from 2,000 to 30,000 cells/well depending on the doubling time of individual cell lines and assay linearity. […] Suspension cells are treated with test compounds immediately after cell inoculation.
Test compounds are serially diluted (3-fold or 4-fold, 8-concentration) using the same media and added to the plates (15 to 25 μL/well). After 72 h of cultivation, the plates are assayed for cell cytotoxicity/viability by using the following two methods.
Cells in plates are fixed with cold trichloroacetic acid (TCA) (50% w/v in DI water, 1/4 volume of the medium in each well), and incubated at 4° C. for 1 h (adherent cells) or 2 h (suspension cells). The plates are washed 5 times (tap water×3, DI water×2) and air-dried. SRB solution 0.4% (w/v) in 1% acetic acid is added to each well (60 μL/well) and the plates are incubated at room temperature for 30 min, then washed with 1% acetic acid solution 4 times, and air-dried.
The plates are added CellTiter-Glo® Reagent (95 μL/well) and read the luminescence on a BioTek H4 reader per manufacture's protocol.
The raw data are processed using BioTek's Software Gen5 (v2.03.01) to generate inhibitory IC50 values.

[2] = Microsomal stability, rat liver microsomes; details: rat, microsomes, 0.75 h, 5 μM, pH 7.4
How it was run: (§1)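 Liver microsomes at 0.5 mg/mL protein incubated with compound for 30 min (mouse), 45 min (rat), or 30 or 45 min (human). Reaction stopped with ice-cold acetonitrile containing 0.3% formic acid; % parent remaining measured by LC-MS.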

[3] = Microsomal stability, human liver microsomes; details: human, microsomes, 0.75 h, 5 μM, pH 7.4
How it was run: as §1

[4] = tested on: PC-3 tumors; test: Target modulation in PC-3 prostate cancer xenograft (histone H3 acetylation, Western blot); assay type: in vivo, mouse; details: BALB/c nude mice, oral, EX1 150 mg/kg, EX78 100 mg/kg
Text: Blood samples, tumors and other tissues were collected for PK/PD studies at the indicated time points (two mice each time point).
The lanes and the concentrations used were as follows: […]

[5] = tested on: histone 3 (Lys 9) and α-tubulin acetylation (HDACs) in PC-3 cells; test: Western blot, acetylation of histone 3 (Lys 9) and α-tubulin in PC-3 cells; assay type: cell-based, human; details: 24 h, 1 or 10 μM
Description: Proteins in cell lysates are resolved by SDS-PAGE and transferred to PVDF and probed with appropriate primary and secondary antibodies. […] Representative Western blot images are shown in FIG. 15 and analyzed results are presented by FIGS. 17 to 20.
PC-3 cells were treated with test compounds at the following concentrations (all contain 0.1% DMSO) for 24 h at 37° C., and then processed according to section of Western Blot Analysis.
The graph represents results from two Western Blot analyses. […] Vehicle DMSO (0.1%) was used as blank control, and its acH3 level was normalized to 1. Y Axis is expressed as Mean±SD if applicable.
Vehicle DMSO (0.1%) as blank control, and its acetylation level was normalized to 1. Y Axis is expressed as Mean±SD if applicable.

[6] = Microsomal stability, mouse liver microsomes; details: mouse, microsomes, 0.5 h, 5 μM, pH 7.4
How it was run: as §1

[7] = target: T1, PI3Kβ (Homo sapiens, UniProt P42338); test: Kinase enzyme assay (ADP-Glo), PI3Kβ; assay type: biochemical; details: read-out: In Vitro Enzymatic IC50 PI3Kβ
T1 construct: purchased SignalChem or BPS P28-10H / 40622
T1 sequence (P42338 whole entry): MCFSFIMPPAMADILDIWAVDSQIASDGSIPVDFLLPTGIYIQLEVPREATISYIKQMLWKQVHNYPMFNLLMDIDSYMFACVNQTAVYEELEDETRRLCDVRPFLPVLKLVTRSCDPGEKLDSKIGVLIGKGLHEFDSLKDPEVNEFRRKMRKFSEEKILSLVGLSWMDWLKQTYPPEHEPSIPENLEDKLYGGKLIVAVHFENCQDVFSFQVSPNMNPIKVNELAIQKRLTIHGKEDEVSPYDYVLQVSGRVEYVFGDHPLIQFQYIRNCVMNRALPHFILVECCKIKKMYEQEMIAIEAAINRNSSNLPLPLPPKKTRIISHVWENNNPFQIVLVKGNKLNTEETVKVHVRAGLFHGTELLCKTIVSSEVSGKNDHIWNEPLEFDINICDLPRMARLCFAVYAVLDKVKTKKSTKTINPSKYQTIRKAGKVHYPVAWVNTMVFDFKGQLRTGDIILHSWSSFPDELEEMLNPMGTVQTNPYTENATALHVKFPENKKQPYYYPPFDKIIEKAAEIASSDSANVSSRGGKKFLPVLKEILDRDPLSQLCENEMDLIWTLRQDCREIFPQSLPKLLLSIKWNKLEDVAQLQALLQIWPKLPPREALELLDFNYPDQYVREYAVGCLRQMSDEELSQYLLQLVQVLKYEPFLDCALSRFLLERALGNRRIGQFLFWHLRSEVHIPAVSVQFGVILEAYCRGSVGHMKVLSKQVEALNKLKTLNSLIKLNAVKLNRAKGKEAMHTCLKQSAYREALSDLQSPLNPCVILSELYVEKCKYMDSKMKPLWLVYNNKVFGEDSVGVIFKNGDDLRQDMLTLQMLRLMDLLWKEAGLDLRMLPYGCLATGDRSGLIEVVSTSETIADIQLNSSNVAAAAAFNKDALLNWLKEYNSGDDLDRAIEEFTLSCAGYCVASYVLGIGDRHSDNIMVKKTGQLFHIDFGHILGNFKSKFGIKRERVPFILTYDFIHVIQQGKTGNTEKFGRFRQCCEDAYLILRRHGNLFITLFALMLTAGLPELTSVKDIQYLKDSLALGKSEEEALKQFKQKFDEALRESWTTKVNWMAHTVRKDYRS
T1 sequence (P27986 whole entry partner): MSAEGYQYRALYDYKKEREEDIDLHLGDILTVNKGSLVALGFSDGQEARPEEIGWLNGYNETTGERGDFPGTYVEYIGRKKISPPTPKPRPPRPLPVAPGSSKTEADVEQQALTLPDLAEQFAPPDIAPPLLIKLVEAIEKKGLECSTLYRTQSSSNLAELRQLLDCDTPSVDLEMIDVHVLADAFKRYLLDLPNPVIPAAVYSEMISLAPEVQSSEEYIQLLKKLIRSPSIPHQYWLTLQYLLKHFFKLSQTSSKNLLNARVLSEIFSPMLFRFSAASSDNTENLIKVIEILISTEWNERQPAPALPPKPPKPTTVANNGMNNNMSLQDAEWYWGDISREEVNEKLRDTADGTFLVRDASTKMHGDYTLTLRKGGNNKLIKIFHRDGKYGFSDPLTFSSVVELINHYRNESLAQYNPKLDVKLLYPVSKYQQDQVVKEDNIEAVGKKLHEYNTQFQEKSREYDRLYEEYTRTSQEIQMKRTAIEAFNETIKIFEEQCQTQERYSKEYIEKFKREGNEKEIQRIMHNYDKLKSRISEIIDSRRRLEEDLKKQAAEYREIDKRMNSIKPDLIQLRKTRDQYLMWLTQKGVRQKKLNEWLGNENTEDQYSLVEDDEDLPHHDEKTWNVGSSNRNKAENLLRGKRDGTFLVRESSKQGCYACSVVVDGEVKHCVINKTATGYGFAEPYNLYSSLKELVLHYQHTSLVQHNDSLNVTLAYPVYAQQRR

SMILES	IC50 [1]	Microsomal Stability RLM, % of remaining parent compound [2]	Microsomal Stability HLM, % of remaining parent compound [3]	Hyperacetylation of H3 in PC-3 tumors [4]	Hyperacetylation of histone 3 (Lys 9) and α-tubulin [5]	Microsomal Stability MLM, % of remaining parent compound [6]	IC50 [7]
CS(=O)(=O)N1CCN(Cc2cc3nc(-c4cccc5[nH]ncc45)nc(N4CCOCC4)c3s2)CC1 [GDC-0941, reference compound]	< 0.5 µM						
CC(C)n1cnc2c(-c3cccc(OCCCC(=O)NO)c3)nc(N3CCOCC3)nc21 [compound 1]	0.5 to 2 µM	70%	101%	Hyperacetylation of H3 in PC-3 tumors was confirmed	the hyperacetylation effect is dose-dependent	96%	
CCn1c(CN(C)Cc2ccc(C(=O)NO)cc2)nc2c(N3CCOCC3)nc(-c3cnc(N)nc3)nc21 [compound 7]							0.01 to 0.1 µM
